Reference: US20150079206A1, “TRIGONELLINE AS A MUSCLE STIMULANT” (DSM IP ASSETS B.V., priority 2009, published 2015)

Tested on: Female C57B1/6 mice
Experiment: Maximal endurance test (treadmill) in non-trained animals
Format: in vivo, mouse
Description: To test the effect of trigonelline in non-trained animals, we performed a maximal endurance test after a treatment period of three weeks.
Female C57B1/6 mice were delivered at a weight of 18-20 g and acclimatized to the facilities for a period of one week. At the beginning of the study the animals were randomized into two groups (10 animals per group). All mice were housed separately and had access to feed and water ad libidum. Animals were treated for three weeks by gavage with trigonelline-hydrochloride at a daily dosage of 300 mg/kg/BW and the control group received vehicle.
For acclimatization, animals were placed on the treadmill for 5 minutes after two weeks. The maximal endurance test was performed two day before the section of the animals.

## C[n+]1cccc(C(=O)[O-])c1 [Trigonelline, trigonelline monohydrate]
3 weeks of supplementation
  skeletal muscle mass in untrained mice (in words): no effect
3 weeks of supplementation, monohydrate
  endurance of untrained animals (in words): not influenced
Untrained mice, three weeks of supplementation, FIG. 4
  wet weight of the gastrocnemius muscle, treated vs control (in words): equal in both groups
